Laboratory results from patent US5376658A, “5,10-methylene-tetrahydrofolate as a modulator of a chemotherapeutic agent” (priority 1993, dated 1994).

Legend:
[1] = tested on: CCRF-CEM cells; assay: Intracellular CH2 FH4 and FH4 levels in CCRF-CEM cells after exposure to 10 μM folate; assay type: cell-based, human; settings: for Intracellular FH4: control 3.08
Text: In further support of the hypothesis that objectives of CH2 FH4 administration are increases in FH4 and FH4 /CH2 FH4 values, are the results of a cell culture study, shown in Table VI, comparing the relative effectiveness of different folate forms on assayed intracellular levels of the two folates.

[2] = cited from earlier work
[3] = tested on: thymidylate synthase (TS); assay: TS level in serial tumor biopsies, patient one (rectal adenocarcinoma), [6-3H]FdUMP ligand-binding assay; assay type: in vivo, human
Protocol: CH2 FH4 was formulated, assayed, and administered to 2 patients who had previously been treated with 5-FU. The assays were performed by the methods described in Spears et al., Adv. Exp. Med. Biol. 244:98-104 (1988). In the data shown, the TS inhibition profiles that resulted from CH2 FH4 administration were not due to concurrent 5-FU dosing. The most recent exposure to 5-FU in these cases was slightly greater than a week prior to the study date, with the patients eligible, however, from the standpoint of toxicity evaluation to receive the weekly dose of 5-FU. Thus, residual FdUMP levels from previous exposure, below the detectable limits for assay, were expected to be present (See spears et al. Mol. Pharmacol. 27:302-07 (1985)). The serial biopsies were done following single dose administration of CH2 FH4.
The formulation of CH2 FH4 was as described in Example 2, and was performed on the day of CH2 FH4 administration. The assays were also performed on the day of CH2 FH4 administration.
^a On Week #1 the CH2 FH4 was formulated at pH 2.0,
DEAEpurified; On Week #2 the preparation was pH 9.0, with 6 mM (final
concentration) CH2 O added, no DEAE step used.
^c By [6^3 H]FdUMP ligandbinding assay (Spears et al., Cancer Res
In patient one, a person with locally unresectable advanced rectal adenocarcinoma, the TS pharmacodynamic tumor tissue analyses were done twice, nine days apart. Following study, the person continued to receive intermittent bolus 5-FU. […] There were modifications of the CH2 FH4 formulation between the 2 pharmacodynamic studies (See Table III). In the first study week, the pH was not adjusted up from 2.0, after DEAE column isolation of the Sigma (6R,S)-CH2 FH4. Thus, some of this folate may also have been 5,10-methenyl-tetrahydrofolate. In the second study week, the pH was adjusted up to 9.0, and no DEAE step was used (with therefore 6 mM formaldehyde being present in the 40-cc volume for injection).

[4] = target: T1, L. casei TS-[3H]FdUMP (Lacticaseibacillus casei, UniProt P00469); assay: TS-[3H]FdUMP-folate ternary complex binding assay
T1 sequence (P00469 1-316): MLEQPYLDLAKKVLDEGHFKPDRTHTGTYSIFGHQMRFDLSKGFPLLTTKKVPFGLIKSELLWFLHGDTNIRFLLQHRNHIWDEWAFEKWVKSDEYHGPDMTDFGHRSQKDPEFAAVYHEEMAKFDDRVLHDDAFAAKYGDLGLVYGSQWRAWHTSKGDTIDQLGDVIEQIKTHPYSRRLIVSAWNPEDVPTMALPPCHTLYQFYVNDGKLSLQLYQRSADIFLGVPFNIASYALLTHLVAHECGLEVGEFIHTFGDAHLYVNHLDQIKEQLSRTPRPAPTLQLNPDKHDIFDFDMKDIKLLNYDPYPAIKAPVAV
Protocol: The CH2 FH4 was prepared as the racemic (6R, S) material from (6R, S)-FH4 and excess formaldehyde, and DEAE-column isolation as described in FIG. 1. This preparation was essentially free of free formaldehyde based on colorimetric assay of bulk material (Nash, Biochem. J. 55:416-21 (1953)).
At all concentrations (total assays volume 150 μl ), excess formaldeyde was required to obtain maximal binding (which was still only 19.3% of stoichiometric binding). A notable effect was the increasing need for formaldehyde addition with increasing dilution, to obtain maximal CH2 FH4 assay recovery.
TS[^3 H]FdUMP-folate ternary complex formation without formaldehyde
addition was 38.5% of the value for the natural (6R)CH2 FH4 wit
6 mM formaldehyde added. (About 1 pmole of parent CH2 FH4 was
^b Only 11.8 ± 7.9% of maximal L. casei TS[^3 H]FdUMP-folate
ternary complex formation (using 6 mM formaldehyde concentration) which i
The unnatural diastereomer, (6S)-CH2 FH4 prepared by DEAE-column,potassium bicarbonate separation from the natural diasteromer as described in Example 8, was dissolved in 0.2M Tris-HCl buffer, pH 7.0, containing sodium ascorbate (100 mM) and 2-mercaptoethanol. This preparation was from the same lot of material described in Example 8. As noted in the footnote of Table VII, in the absence of supplemental formaldehyde, the yield of dextrancharcoal isolated complex was 38.5% of the value for the natural (6R)-CH2 FH4 (with added 6 mM formaldehyde).

[5] = tested on: thymidylate synthase (TS); assay: TS level in serial tumor biopsies, patient three (skin metastasis from gastric carcinoma), [6-3H]FdUMP ligand-binding assay; assay type: in vivo, human; settings: for TS, % of Baseline / Thymidylate synthase (TS): 30 mg IV; for Thymidylate synthase (TS): baseline 1.31
Protocol: The assays were performed by the methods described in Spears et al., Adv. […] The serial biopsies were done following single dose administration of CH2 FH4.
The assays were also performed on the day of CH2 FH4 administration.

[6] = tested on: transplanted colon cancer; assay: Comparison of natural and unnatural CH2 FH4 diastereomers in rats bearing transplanted colon cancer; assay type: in vivo, rat; settings: 15 mg/kg, Day 17, no fluorinated pyrimidine
Text: A study has been completed, for comparison of natural (6R)-CH2 FH4 and unnatural (6S)-CH2 FH4 diastereomers. The preparation of the two forms was done as described by Kisliuk, et al., Cancer Treat. Rep. 61:647-50 (1977), using DEAE-cellulose column chromatography, with elution by potassium bicarbonate buffer. The two separate major peaks were individually pooled, lyophilized to dryness, and used for injection. As in the original detailed description of the method of Kisliuk, et al. (Biochem. 20:929-934), the methylene content was substoichiometric with tetrahydrofolate (FH4). That is, methylene units were present in apparently lower concentration than FH4 concentrations.
Rats bearing the transplanted colon cancer, as described in Example 4 and in Carlsson, et al., Anticancer. Res. 10:813-816, 1991, were treated with either the (6R)-CH2 FH4 or the (6S)-CH2 FH4, formulated and injected according to the methods described in Table IV, except that the injected amounts were 15 mg/kg per dose.
At Day 17, the rats were sacrificed, and the tumors were measured for both volume end weight. Volumes were calculated by the equation for an ellipsoid in revolution, V=(4/3)πab^2 were a=the long diameter/2 and b=the perpendicular short diameter/2.
The filled circles are the weights and volumes of tumors of rats treated with the unnatural (6S)-CH2 FH4 diastereomer (mostly (6R)-FH4 material in dilute solution and blood); the triangles are results for the natural (6R)-CH2 FH4 (mostly (6S)-FH4); and the open circles, control non-treated tumors. It is emphasized here that no fluorinated pyrimidine was used, just the folate injections.

[7] = tested on: CH2 FH4 and FH4 in breast cancer biopsies; assay: CH2 FH4 and FH4 levels in breast cancer biopsies during L-serine infusion after high-dose (6R,S)-leucovorin; assay type: in vivo, human; parameters: CH2 FH4 / FH4: unit not given here; settings: patient two
Protocol: As noted previously (see pages 5-6) and mentioned in C. P. Spears, et al., Proc. Am. Soc. Clin. Oncol. 8:69 (1989), the inventors have used pharmacologic intervention to convert intracellular FH4 to CH2 FH4 in patients receiving high-dose reduced folate therapy combined with weekly i.v. bolus 5-FU, 450 mg/sq. m. The method used was administration of i.v. L-serine, 15.0 grams, over 1 hour after the end of overnight high-dose (6R,S)-leucovorin i.v. infusion.
In contrast to the data shown in Tables II and III, the inventors were able to also assay for intratumoral FH4 in addition to CH2 FH4 (this latter is also referred to as "FBC" in those Tables or Folate-Binding Capacity), at time points during this pharmacologic forcing of metabolism of FH4 to CH2 FH4 through the enzyme, serine hydroxymethyltransferase. This enzyme splits a carbon of L-serine to generate formaldehyde in the presence of FH4.
^a Minutes after initiation of 15.0 gram LSerine i.v. 60min infusion,
after end of overnight (6R,S)leucovorin highdose i.v. infusion.
^b Assays performed as described (C.P. Spears et al., Adv. Exp. Med.

[8] = 0 min (start of L-serine, after overnight leucovorin)

For `Nc1nc2c(c(=O)[nH]1)N(C=O)[C@@H](CNc1ccc(C(=O)N[C@@H](CCC(=O)O)C(=O)O)cc1)CN2` [(6S)-LV], the “Intracellular FH4” value ([1]; 16-hr exposure) was 10.64 nmole/10^9 Cells.
With `CN1c2c(nc(N)[nH]c2=O)NC[C@H]1CNc1ccc(C(=O)N[C@@H](CCC(=O)O)C(=O)O)cc1` [(6R,S)-MTHF, 5-methyl-(6R, S)-tetrahydrofolate] the “Intracellular FH4” value ([1]; 16-hr exposure) was 10.55 nmole/10^9 Cells.
For `Nc1nc2c(c(=O)[nH]1)N=C(CNc1ccc(C(=O)N[C@@H](CCC(=O)O)C(=O)O)cc1)CN2` [DHF, Dihydrofolate], the “Intracellular FH4” value ([1]; 16-hr exposure) was 7.10 nmole/10^9 Cells.
For `Nc1nc2c(c(=O)[nH]1)N1CN(c3ccc(C(=O)N[C@@H](CCC(=O)O)C(=O)O)cc3)CC1CN2` (stereo partly shown) [CH2 FH4, 5,10-methylene-tetrahydrofolate], the “storage stability in solution” value ([2]; column-isolated, under argon at -80° C.) is listed as “up to a year without decomposition”, the “stability in the presence of oxygen” value ([2]; solutions and powder, oxygen, catalyzed by light, acid, base, heavy metals) is listed as “unstable” and the “TS, % of Baseline” value ([3]; Week #1, 35 mg IV, 10 min) is listed as 212.4%. The “Thymidylate synthase (TS)” value ([3]; Week #1, 35 mg IV, 10 min, baseline 5.77) was 6.28 pmol/g, the “TS, % of Baseline” value ([3]; Week #1, 35 mg IV, 20 min) was 43.7% and the “Thymidylate synthase (TS)” value ([3]; Week #1, 35 mg IV, 20 min, baseline 5.77) was 2.26 pmol/g. For the same molecule, the “TS, % of Baseline” value ([3]; Week #1, 35 mg IV, 30 min) was 114.1%, the “Thymidylate synthase (TS)” value ([3]; Week #1, 35 mg IV, 30 min, baseline 5.77) was 5.90 pmol/g and the “TS, % of Baseline” value ([3]; Week #1, 35 mg IV, 24 hr) was 122.2%. For the same molecule, the “Thymidylate synthase (TS)” value ([3]; Week #1, 35 mg IV, 24 hr, baseline 5.77) was 6.32 pmol/g, the “TS, % of Baseline” value ([3]; Week #2, 50 mg IV, 10 min) was 181.7% and the “Thymidylate synthase (TS)” value ([3]; Week #2, 50 mg IV, 10 min, baseline 5.64) was 10.25 pmol/g. For the same molecule, the “TS, % of Baseline” value ([3]; Week #2, 50 mg IV, 20 min) was 104.8%, the “Thymidylate synthase (TS)” value ([3]; Week #2, 50 mg IV, 20 min, baseline 5.64) was 5.91 pmol/g and the “TS, % of Baseline” value ([3]; Week #2, 50 mg IV, 30 min) was 35.8%. For the same molecule, the “Thymidylate synthase (TS)” value ([3]; Week #2, 50 mg IV, 30 min, baseline 5.64) was 2.02 pmol/g, the “TS, % of Baseline” value ([3]; Week #2, 50 mg IV, 40 min) was 61.3% and the “Thymidylate synthase (TS)” value ([3]; Week #2, 50 mg IV, 40 min, baseline 5.64) was 3.46 pmol/g. For the same molecule, the “maximal binding, % of stoichiometric binding” value ([4]; 0.2M Tris pH 7.4, excess formaldehyde (6 mM)) was 19.3%, the “TS, % of Baseline” value ([5]; 10 min) was 19.8% and the “TS, % of Baseline” value ([5]; 20 min) was 42.7%. The “TS, % of Baseline” value ([5]; 40 min) was 75.6%, the “TS, % of Baseline” value ([5]; 60 min) was 112.2% and the “Thymidylate synthase (TS)” value ([5]; biopsy at 10 min) was 0.26 pmol/g. The “Thymidylate synthase (TS)” value ([5]; biopsy at 20 min) was 0.56 pmol/g, the “Thymidylate synthase (TS)” value ([5]; biopsy at 40 min) was 0.99 pmol/g and the “Thymidylate synthase (TS)” value ([5]; biopsy at 60 min) was 1.47 pmol/g. For the same molecule, the “TS inhibition / decrease over baseline value” ([5]; 10 min (first biopsy)) was 80.2% and the TS inhibition ([5]; 20 min) was 57.3%.
In the case of `Nc1nc2c(c(=O)[nH]1)N1CN(c3ccc(C(=O)N[C@@H](CCC(=O)O)C(=O)O)cc3)C[C@H]1CN2` [(6R)-CH2 FH4], the “Intracellular CH2 FH4” value ([1]; 90 min exposure, control 0.04) was 0.19 nmole/10^9 Cells, the “Intracellular FH4” value ([1]; 90 min exposure) was 8.81 nmole/10^9 Cells and the “% of maximal L. casei TS-[3H]FdUMP-folate ternary complex formation” value ([4]; maximal = using 6 mM formaldehyde) was 11.8 ± 7.9%. For the same molecule, the “Tumor volume ± SE” value ([6]; control 7.81) was 12.58 and the “Tumor weight ± SE” value ([6]; control 7.93) was 9.11.
In the case of `Nc1nc2c(c(=O)[nH]1)N(C=O)[C@H](CNc1ccc(C(=O)N[C@@H](CCC(=O)O)C(=O)O)cc1)CN2` [LV, (6R,S)-5-formyl-tetrahydrofolate], the “Ratio of FH4/CH2 FH4” value ([7]; 0 min) was 12.2, the “CH2 FH4” value [7, 8] was 0.194 and the FH4 [7, 8] was 2.370.
